Experimental data: patent publication US20250263370A1 (Tay Therapeutics Limited, priority 2022, published 2025)
Read-outs that look alike come from different tables or passages of the source.

How the values were obtained:
BRD4 BD2 = BRD4 BD2 (Homo sapiens (Human), UniProt O60885); test: NanoBRET bromodomain assay, NanoLuc-BRD4-BD2 fusion in HEK293 cells; conditions: for IC50: BRD4 BD2 (IC50), NanoBRET, HEK293 cells, top concentration 10 μM; for Fold selectivity: IC50 for BRD4 BD1 divided by IC50 for BRD4 BD2, qualitative if an IC50 is at the upper limit;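 as to all read-outs here: tracer displacement BRET read in transfected cells after 2 h compound exposure at 37 °C, signal in milliBRET units corrected against no-tracer background wells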
[1] = Sprague-Dawley rat pharmacokinetics, IV and PO cassette dosing; format: in vivo; conditions: Method 1
Experimental: Compounds were formulated in 5% DMSO, 40% PEG-400, 55% Milli-Q water at a concentration of 0.2 mg/mL for IV and at 0.5 mg/mL for PO. Two male Sprague-Dawley rats per arm were dosed with up to 5 compounds in cassette mode, which each compound being dosed at 1 mg/kg IV and 5 mg/kg PO. Blood was sampled at various timepoints and plasma isolated. 50 μL of plasma with 5 μL of blank Sprague-Dawley rat plasma were added to 200 μL of acetonitrile containing IS mixture. The samples were vortexed for 30 s. After centrifugation at 4 degrees Celsius, 3900 rpm for 15 min, the supernatant was diluted 3 times with water. 20 μL of diluted supernatant was injected into the LC/MS/MS system for quantitative analysis and concentration of analyte determined by comparison with matrix matched standard curve. WinNonlin (Phoenix™, version 8.3) or other similar software may be used for pharmacokinetic calculations.

[2] = Intrinsic clearance in liver microsomes, rat; format: in vitro ADME; conditions: rat, liver microsomes, pH 7.4, rat liver microsomes, Method 1; read-out: Half-Life (T1/2) (min), Rat
Experimental: From stock solution of compound on 10 mM DMSO, a working solution of 0.1 mM is prepared by diluting the compound in DMSO. 6.25 μL of a 20 mg/mL solution of microsomes in PBS pH 7.4 buffer is added to 216.25 μL PBS pH 7.4 buffer (final microsome concentration—0.5 mg/mL). 25 μL of 10 mM solution of NADPH in PBS pH 7.4 buffer is added to the incubations (final NADPH concentration—1 mM). The mixture is pre-warmed to 37° C. for 10 minutes. 2.5 μL of test compound working solution is added (final compound concentration—1 μM with 1% DMSO). Aliquots of 30 μL are taken from the reaction solution at 0.5, 5, 15, 30 and 60 minutes. The reaction was stopped by the addition of 5 volumes of cold acetonitrile with IS (100 nM alprazolam, 200 nM caffeine and 100 nM tolbutamide). Samples were centrifuged at 3, 220 g for 40 minutes. Aliquots of 100 μL of the supernatant are mixed with 100 μL of ultra-pure H2O and used for LC-MS/MS analysis. The percent compound remaining at each time point is calculated with respect to that of the 0.5 min sample. The data are analysed to calculate half-life. Control experiments are run without NADPH and blank samples are prepared using DMSO without the test compound.
A 50 mM stock solution (in DMSO) is prepared for the compound. From the stock solution, a working solution of 0.5 mM is prepared by diluting the compound in DMSO. This concentration of working solution is prepared considering a final concentration of 1 uM with 0.1% DMSO. The compound (1 μL of working solution) is spiked in PBS with pH 7.4 ([…]) at a concentration of 1 μM. Subsequently, 110 μL of 10 mM NADPH is added (as a co-factor). The sample is incubated at 37° C. for 15 min. Following this, pre-warmed liver microsomes (27.5 μL; final protein conc. 0.5 mg/mL) are added. The samples are then incubated at 37° C. Aliquots of samples are withdrawn at 0, 5, 15, 30, 45 and 60 min. The reaction is stopped by using chilled acetonitrile containing internal standard. The samples are centrifuged, and the supernatants analysed by LC-MS/MS. The percent compound remaining at each time point is calculated with respect to that of the 0 min sample. The data are then analysed to calculate half-life and intrinsic clearance (CLint). Control experiments are run without NADPH and blank samples are prepared using DMSO without the test compound.

BRD4 BD1 = BRD4 BD1 (Homo sapiens (Human), UniProt O60885); test: NanoBRET bromodomain assay, NanoLuc-BRD4-BD1 fusion in HEK293 cells; format: cell-based; conditions: top concentration 10 μM
[3] = Plasma stability assay, rat plasma; format: in vitro ADME; conditions: Method 2 (10 μM)
Experimental: From stock solution of compound in 10 mM DMSO, a working solution of 1 mM is prepared by diluting the compound in DMSO. To 398 μL of plasma pre-warmed at 37° C. for 15 minutes), 2 μL of working solution of compound is added, resulting in a final concentration of 5 μM (0.5% DMSO) for the compound. The sample is then incubated at 37° C. Aliquot is withdrawn at specified time-points (0, 15, 30, 60 and 120 mins). The reaction is stopped by addition of 450 μL cold acetonitrile containing internal standard (IS). […] Aliquots of the supernatant is analysed using LC-MS/MS. The percent remaining of the compound at each time point is calculated with respect to the control sample (0 min time-point).
A working solution of compound (500 μM) is prepared in DMSO (100%). To 735 μL of plasma, 15 μL of working solution of compound is added—resulting in a final concentration of 10 μM (2% DMSO) for the compound. The sample is then incubated at 37° C. Aliquot is withdrawn at time-points—0, 15, 30, 60, 90 and 120 mins. The reaction is stopped by using chilled acetonitrile containing internal standard (IS). The samples are centrifuged and the supernatants analyzed using LC-MS/MS. The percent remaining of the compound at each time point is calculated with respect to the control sample (0 min time-point).

IL-22 = IL-22 levels by ELISA in stimulated human peripheral blood mononuclear cells; format: cell-based; conditions: for IC50: Homo sapiens, PBMC; for IC50 for IL-22 relative to GSK620 / Biomarker selectivity (IL-22 vs. CXCL10): human PBMC; for IC50 for IL-22 relative to GSK620: 72 hours; for Biomarker selectivity (IL-22 vs. CXCL10): from mean IC50
Experimental: (§1) CD2, CD3, and CD28 antibody-coated beads from the T-cell activation/expansion kit (Miltenyi Biotec) were added to the PBMC at a bead-to-cell ratio of 1:2.
(§2) The mixture of PBMCs and beads were seeded into the wells of the round-bottom 96-well plate at a concentration of 2×10^5 cells/well in a total volume of 200 μL. The cells were cultured for 72 hours at 37° C. and 5% CO2 and then supernatants were collected and IL-17A and IL-22 levels were measured by ELISA. […] The final compound concentration ranged from 30,000 nM to 0.005 nM and the final DMSO concentration per well was 0.3%. PBMCs were seeded at approximately 2×10^5 cells/well in the wells of the 96-well tissue culture plate in a total volume of 190 μL. The plate was incubated for 1 hour at 37° C. and 5% CO2. […] The cells were then cultured for 24 hours at 37° C. and 5% CO2. The supernatant was collected and CXCL10 levels were measured by ELISA.

IL-17A = IL-17A levels by ELISA in stimulated human peripheral blood mononuclear cells; format: cell-based; conditions: for IC50: Homo sapiens, PBMC; for IC50 for IL-17A relative to GSK620 / Biomarker selectivity (IL-17 vs. CXCL10): human PBMC; for IC50 for IL-17A relative to GSK620: 72 hours; for Biomarker selectivity (IL-17 vs. CXCL10): from mean IC50
Experimental: as §1, §2

CXCL10 = CXCL10 levels by ELISA in IFN-γ stimulated human peripheral blood mononuclear cells; format: cell-based; conditions: human PBMC
Experimental: The impact of Examples 23, 80, and 101 on IL-17A, IL-22, and CXCL10 levels was analyzed in cryopreserved human peripheral blood mononuclear cells (PBMC) by ELISA. […] For IL-17A and IL-22 assays, Examples 23, 80, and 101 were serially diluted from 10 mM in DMSO and further diluted in assay media to 100× the required final concentration, of which, 2 μL was added per well to a round-bottom 96-well tissue culture plate where the final DMSO concentration per well was 0.1%. CD2, CD3, and CD28 antibody-coated beads from the T-cell activation/expansion kit (Miltenyi Biotec) were added to the PBMC at a bead-to-cell ratio of 1:2.
The mixture of PBMCs and beads were seeded into the wells of the round-bottom 96-well plate at a concentration of 2×10^5 cells/well in a total volume of 200 μL. The cells were cultured for 72 hours at 37° C. and 5% CO2 and then supernatants were collected and IL-17A and IL-22 levels were measured by ELISA. For the CXCL10 assay, Examples 23, 80, and 101 were serially diluted from 10 mM in DMSO and further diluted in assay media to 100× the required final concentration, of which 2 μL was added per well to a 96-well tissue culture plate. The final compound concentration ranged from 30,000 nM to 0.005 nM and the final DMSO concentration per well was 0.3%. PBMCs were seeded at approximately 2×10^5 cells/well in the wells of the 96-well tissue culture plate in a total volume of 190 μL. The plate was incubated for 1 hour at 37° C. and 5% CO2. The cells were then stimulated with IFN-γ (15 ng/mL final concentration) in a volume of 10 μL. The cells were then cultured for 24 hours at 37° C. and 5% CO2. The supernatant was collected and CXCL10 levels were measured by ELISA.

[4] = Test Subject 2, read-out: IL-22 IC50
[5] = Test Subject 3, read-out: IL-22 IC50
[6] = mean of test subjects, read-out: IL-22 IC50 Mean
[7] = Test Subject 1, read-out: IL-17A IC50
[8] = Test Subject 3, read-out: IL-17A IC50
[9] = mean of test subjects, read-out: IL-17A IC50 Mean
[10] = Test Subject 2, read-out: CXCL10 IC50
[11] = Test Subject 3, read-out: CXCL10 IC50
[12] = mean of test subjects, read-out: CXCL10 IC50 Mean

| SMILES | IC50 (BRD4 BD2) [nM] | Fold selectivity (BRD4 BD2) | IC50 (BRD4 BD1) [nM] | IC50 (IL-22; [4]) [nM] | IC50 (IL-22; [5]) [nM] | IC50 (IL-22; [6]) [nM] | IC50 for IL-22 relative to GSK620 (IL-22) | Biomarker selectivity (IL-22 vs. CXCL10) (IL-22) [Fold] | IC50 (IL-17A; [7]) [nM] | IC50 (IL-17A; [8]) [nM] | IC50 (IL-17A; [9]) [nM] | IC50 for IL-17A relative to GSK620 (IL-17A) | Biomarker selectivity (IL-17 vs. CXCL10) (IL-17A) [Fold] | selectivity to induction of CXCL10 relative to IL-17A and IL-22 (CXCL10) | IC50 (CXCL10; [10]) [nM] | IC50 (CXCL10; [11]) [nM] | IC50 (CXCL10; [12]) [nM] | also measured |
| --- | --- | --- | --- | --- | --- | --- | --- | --- | --- | --- | --- | --- | --- | --- | --- | --- | --- | --- |
| CNC(=O)c1[nH]c(C(=O)NC2CCC2)cc1OC(C)c1ccc(Cl)cc1F (single isomer, unassigned) [Example 35, 3-(1-(4-chloro-2-fluorophenyl)ethoxy)-N^5-cyclobutyl-N^2-methyl-1H-pyrrole-2,5-dicarboxamide] | < 50 | XXX (Fold >200) | ≥ 10000 | – | – | – | – | – | – | – | – | – | – | – | – | – | – | IV T1/2 ([1]; IV 1 mg/kg): 30 min; PO F ([1]; PO 5 mg/kg): 65%; half-life at 1 μM [2]: 46 min; Plasma Stability (% remaining at 120 minutes), Rat [3]: 67% |
| CNC(=O)c1[nH]c(-c2ncc(C)[nH]2)cc1O[C@@H](C)c1ccccc1 [Example 23, (S)-N-methyl-5-(5-methyl-1H-imidazol-2-yl)-3-(1-phenylethoxy)-1H-pyrrole-2-carboxamide] | < 50 | XXX (Fold >200) | ≥ 10000 | 1.2 | 4.3 | 4.7 | decreased mean IC50 | >6429 | 104 | 53.4 | 24.5 | decreased mean IC50 | >1226 | showed selectivity to induction of CXCL10 relative to IL-17A and IL-22 | > 30000 | > 30000 | > 30000 | IC50 (IL-22; Test Subject 1, read-out: IL-22 IC50): 8.5 nM; BRD4 BD2 % Activity Remaining @ 10 uM (BRD4 BD2; 10 uM, (2) = second batch): 22%; IC50 (IL-17A; Test Subject 2, read-out: IL-17A IC50): 9.6 nM |
| CNC(=O)c1[nH]c(-c2cnn(C(C)C)c2)cc1O[C@@H](C)c1ccccc1 [Example 80, (S)-5-(1-isopropyl-1H-pyrazol-4-yl)-N-methyl-3-(1-phenylethoxy)-1H-pyrrole-2-carboxamide] | < 50 | XXX (Fold >200) | ≥ 10000 | 9.3 | 30.7 | 20 | decreased mean IC50 | >1500 | 25.1 | 187 | 106 | increased mean IC50 | >283 | showed selectivity to induction of CXCL10 relative to IL-17A and IL-22 | > 30000 | > 30000 | > 30000 | IC50 (CXCL10; Test Subject 1, read-out: CXCL10 IC50): > 30000 nM |
